Laboratory results as given in patent publication EP1129187B1, “NEW FAMILY OF MAMMALIAN POTASSIUM CHANNELS, THEIR CLONING AND THEIR USE, ESPECIALLY FOR THE SCREENING OF DRUGS” (CENTRE NATIONAL DE LA RECHERCHE SCIENTIFIQUE (CNRS), priority 1998, dated 2000).
Where two headings read alike, the source gives them in different places.

Tests used:
[1] = biological target: T1, human TWIK-1 K+ channel, SEQ ID NO: 2 (Homo sapiens, UniProt O00180); test: TWIK-1 K+ currents, two-electrode voltage clamp in Xenopus oocytes injected with TWIK-1 cRNA; format: cell-based
T1 construct: expressed in transfected cells; host or cells: Xenopus laevis oocytes injected with cRNA transcribed from pEXO-TWIK-1
T1 sequence (O00180 1-336): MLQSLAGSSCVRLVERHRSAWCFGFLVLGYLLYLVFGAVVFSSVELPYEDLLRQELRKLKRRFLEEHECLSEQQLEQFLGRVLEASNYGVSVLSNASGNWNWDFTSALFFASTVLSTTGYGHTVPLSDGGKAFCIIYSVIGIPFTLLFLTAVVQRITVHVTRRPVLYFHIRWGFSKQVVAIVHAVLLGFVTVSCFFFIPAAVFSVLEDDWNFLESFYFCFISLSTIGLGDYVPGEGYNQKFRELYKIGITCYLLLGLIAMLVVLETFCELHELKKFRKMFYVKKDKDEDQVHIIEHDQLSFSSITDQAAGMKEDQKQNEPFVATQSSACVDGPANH
Method: For the functional study, the coding sequence of TWIK-1 was inserted between the noncoding sequences 5' and 3' of Xenopus globin in the vector pEXO (Lingueglia, E. et al., 1993, J. Biol. Chem., 269, 13736-13739). A complementary RNA (cRNA) was transcribed of this construction and injected in the oocytes of X laevis. In a 0.3ml perfusion chamber, a single oocyte was impaled on two standard glass microelectrodes (0.5 - 2.0 MW) charged with 3 M KCI and maintained under voltage-clamp with a Dagan TEV200 amplifier. The bath solution contained 98 mM KCl,1.8 raM CaCl2 […] and 5 mM HEPES at pH 7.4 with KOH. Stimulation of the preparation, data acquisition and analyses were carried out with the pClamp program (Axon Instruments) USA3.
Intracellular acidification of the oocytes was produced using two methods: • superfusion with a solution enriched in CO2 which produces acidification by a mechanism involving the bicarbonate transport system (Guillemare, E. et al., 1995, Mol. Pharmacol., 47, 588-594); • treatment with dinitrophenol (DNP), which is a metabolic inhibitor that decouples the H+ gradient in mitochondria and induces internal acidity (Pedersen, P. L. and Carafoli, E., 1997, Trends Biol. Sci., 12, 146-189).
Phosphorylation or dephosphorylation of specific amino acid residues is an important mechanism of regulation of the ionic channels (Levitan, I. B., 1994, Annul Rev. Physiol., 56, 193-212).

[2] = biological target: T2, human TASK-2 K+ channel, SEQ ID NO: 28 (Homo sapiens, UniProt O95279); test: TASK-2 currents elicited by voltage pulses to +50 mV, whole cell recording in transfected COS cells; format: cell-based
T2 construct: expressed in transfected cells; host or cells: COS cells transiently transfected with pIREScd8-TASK-2 (DEAE-dextran)
T2 sequence (O95279 1-499): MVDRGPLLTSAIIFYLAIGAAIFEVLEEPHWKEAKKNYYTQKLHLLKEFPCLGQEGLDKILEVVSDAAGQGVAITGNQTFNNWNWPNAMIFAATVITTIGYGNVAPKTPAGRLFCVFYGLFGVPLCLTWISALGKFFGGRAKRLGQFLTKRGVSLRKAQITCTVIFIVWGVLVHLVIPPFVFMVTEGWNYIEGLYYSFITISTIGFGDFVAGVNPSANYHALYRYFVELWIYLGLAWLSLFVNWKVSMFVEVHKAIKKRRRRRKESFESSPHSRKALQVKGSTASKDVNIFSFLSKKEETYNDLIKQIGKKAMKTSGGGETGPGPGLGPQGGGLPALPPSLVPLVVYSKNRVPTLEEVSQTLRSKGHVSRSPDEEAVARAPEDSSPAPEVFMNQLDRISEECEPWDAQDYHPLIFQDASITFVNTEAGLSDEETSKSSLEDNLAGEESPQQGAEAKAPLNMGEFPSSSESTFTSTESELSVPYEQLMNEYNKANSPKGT
Method: For patch clamp analyses, a NotI/EcoRI fragment of 3.2 kb was excised from pBS-TASK 2 and subcloned into the pIRES-CD8 vectorto givepIREScdB-TASK-2. ThepIRES-CD8 vector was obtained by replacing the neo^R gene in the original vector pIRESneo (Clontech) by the coding sequence of the T type lymphocyte's surface marker CD8. COS cells were seeded at a density of 20,000 cells per 35 mm dishes 24 h prior to transfection. Cells were then transiently transfected by the classical DEAE-dextian method with 1 µg of prREScdB-TASK-2 plasmid per 35 mm dish. Transiently-transfected cells were visualized 48 h after transfection using the anti-CD8 antibody coated beads method (24). For whole cell recordings, the internal solution contained 150 mM KCI, 3 mM MgCl2, 5 mM EGTA, and 10 mM HEPES at pH 7.2 with KOH, and he external solution 150 mM NaCl, 5 mM KCI, 3 mM MgCl2 1 mM CaCl2, 10 mM HEPES at pH 7.4 with NaOH.
The effects of various pharmacological agents on currents elicited by voltage pulses to +50 mV have been studied in TASK-2-exprcssing. COS cells.

[3] = biological target: T1, human TWIK-1 K+ channel, SEQ ID NO: 2; test: TWIK-1 single channel activity, excised patch from Xenopus oocytes; format: cell-based; conditions: perfusion of the excised patch with 10 mM
Method: The pipettes were filled with a strong K+ solution (40 mM KCl, 100 mM of potassium methane sulfonate, 1.8 mM CaCl2, 2 m M MgCl2 and 5 mM HEPES adjusted to pH 7.4 with KOH). 100 µM of GdCl3 was added to the pipette solution to inhibit the action of the […]. The inside-out patches were perfused with a solution containing 140 mM KC1,10 mM CaCl2, 5 mM HEPES adjusted to pH 7.2 with KOH and 5 m M EGTA added daily. The single channel signals were filtered at 3.5 kHz and analyzed with the Biopatch program (Big-Logic, Grenoble, France).
With 3 mM of internal Mg^2+, the mean duration of opening at +80 mV is 1.9 ms and the unitary conductance is 19 +/- 1 pS (Figure 5c). At -80 mV, the channels are oscillating with a mean duration of opening of 0.3 ms, and a conductance value in creasing to 34 pS. […] In contrast to numerous channels which require the presence of ATP for their activity in the excised patch configuration, ATP is not required for the expression of TWIK-1.

[4] = biological target: human TASK1 K+ channel, SEQ ID NO: 4 (Homo sapiens, UniProt O14649); test: TASK1 currents elicited by voltage pulses to +50 mV, two-electrode voltage clamp in Xenopus oocytes; format: cell-based; conditions: for inhibition at 100 µM: read-out: TASK1 currents inhibited
Chain of human TASK1 K+ channel, SEQ ID NO: 4 (O14649 whole entry, the tested form may be a part): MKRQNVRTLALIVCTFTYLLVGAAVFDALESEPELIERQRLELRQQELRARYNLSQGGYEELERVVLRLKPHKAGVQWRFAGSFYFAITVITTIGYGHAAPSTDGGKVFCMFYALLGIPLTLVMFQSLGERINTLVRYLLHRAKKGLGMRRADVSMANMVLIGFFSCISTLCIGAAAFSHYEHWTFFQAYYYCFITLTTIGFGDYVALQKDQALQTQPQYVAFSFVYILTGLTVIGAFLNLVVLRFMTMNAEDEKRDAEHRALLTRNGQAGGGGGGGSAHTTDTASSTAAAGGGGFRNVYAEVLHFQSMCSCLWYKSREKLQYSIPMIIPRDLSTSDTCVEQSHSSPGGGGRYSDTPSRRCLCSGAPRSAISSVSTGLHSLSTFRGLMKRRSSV
Method: For functional studies, TASK1 cRNAs were injected into Xenopus oocytes. This was accomplished by subcloning a 2480 bp SmaI/XhoI fragment from pBS-hT ASK containing 14 bp of 5' UTR, the coding sequence and the entire 3' UTR into the pEXO vector (Lingueglia et al., 1993) to give pEXO-TASK1. Capped-cRNAs were synthesised in vitro from the linearized plasmid by using the T7 RNA polymerase (Stratagene). Xenopus laevis were purchased from CRBM (Montpellier, France). Preparation and cRNA injection of oocytes has been described elsewhere (Guillemare et al., 1992). Oocytes were used for electrophysiological studies 2 to 4 days following injection (20 ng/oocyte). In a 0.3 ml perfusion chamber, a single oocyte was impaled with two standard microelectrodes (1-2.5 Mn resistance) filled with 3 M KCI and maintained under voltage clamp by using a Dagan TEV 200 amplifier, in standard ND96 solution (96 mM NaC1. 2 mM KCI, 1.8 mM CaCI2, 2 mM MgCl2, 5 mM HEPES, pH 7.4 with NaOH). In some experiments, NaCl was substituted with TMA Cl (Tetra Methyl Ammonium Chloride). Stimulation of the preparation, data acquisition, and analysis were performed using pClamp software (Axon instruments, USA). Drugs were applied externally by addition to the superfusate (flow rate: 3 ml/min) or intracellularly injected by using a pressure microinjector (Inject+Matic, Switzedand). All experiments were performed at room temperature (21-22 °C).
Figure 12A presents the I-V relationships of the current in K^+-rich solutions ranging from 2 mM to 98 mM. […] The theoretical I-V relationships in various [K^+]out calculated according to the Goldman-Hodgkin-Katz current equation are shown in Figure 12D. […] The effect of various pharmacological agents on currents elicited by voltage pulses to +50 mV has been studied in TASK1-expressing oocytes.

[5] = biological target: TWIK-1 (Tandem of P domains in a Weak Inward rectifying K+ channel) (human); test: cell-based or functional assay
[6] = read-out: inhibition of TWIK-1 currents
[7] = COS, read-out: inhibition of the TASK-2 current

Chain of charybdotoxine (P13487 23-59 limits assumed): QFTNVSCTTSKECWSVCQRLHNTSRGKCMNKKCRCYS

For `Nc1ccncc1` [4-aminopyridine], the inhibition at 1000 µM ([1]; at 1 mM, read-out: inhibition of TWIK-1 currents) was less than 10% and the “effect on TASK-2 currents” value ([2]; 100 µM) was “inactive”.
`Nc1ncnc2c1nc(Cl)n2[C@@H]1O[C@@H]2COP(=O)(O)O[C@H]2[C@H]1O` [8-Cl-AMPc, 8-chloro cAMP] was tested, and the “effect on the activity of TWIK-1” value ([1]; 300 µM, activation of protein kinase A) was “does not affect” and the “sensitivity of TASK-2 currents” value ([2]; perfusion of 500 µM) was “insensitive”.
In the case of `CNc1ccc2oc(C[C@H]3O[C@@]4(CC[C@H]3C)O[C@H]([C@H](C)C(=O)c3ccc[nH]3)[C@H](C)C[C@H]4C)nc2c1C(=O)O` [A23187], the “effect on the properties of the TWIK-1 channel” value [1] is reported as “without effect”.
For `Nc1ncnc2c1ncn2[C@@H]1O[C@H](COP(=O)(O)OP(=O)(O)OP(=O)(O)O)[C@@H](O)[C@H]1O` [ATP], the “effect on the activity of the TWIK-1 channel” value [3] was “does not induce any effect”.
With `O=[N+]([O-])c1ccc(O)c([N+](=O)[O-])c1` [DNP, dinitrophenol] the inhibition at 1000 µM ([1]; DNP 1 mM, intracellular acidification, % of the control amplitude, read-out: reduction in the TWIK-1 currents) was 80%.
With `O=C(O)CN(CCOCCOCCN(CC(=O)O)CC(=O)O)CC(=O)O` [EGTA] the “sensitivity of TASK1 currents” value ([4]; injection of 100 mM, internal Ca2+ change) was “insensitive”.
In the case of `CC(C)Cn1c(=O)n(C)c(=O)c2[nH]cnc21` [IBMX], the “sensitivity of TASK1 currents” value ([4]; IBMX 1 mM perfused together with forskolin 10 µM, activation of adenyl cyclase) is reported as “insensitive” and the “sensitivity of TASK-2 currents” value ([2]; IBMX 1 mM in a cocktail with forskolin 10 µM, increasing intracellular cAMP) is reported as “insensitive”.
For `CCCCCCCCCC(=O)O[C@@H]1[C@@H](C)[C@@]2(O)[C@@H](C=C(CO)C[C@@]3(O)C(=O)C(C)=C[C@@H]23)[C@@H]2C(C)(C)[C@]12OC(=O)CCCCCCCCC` [PDA, 4α-phorbol-12, 13 didecanoate], the “effect on TWIK-1 currents” value [1] was “no effect”.
In the case of `CC[N+](CC)(CC)CC` [TEA, tetraethylammonium], the inhibition at 20000 µM [1, 6] is reported as 30% and the “effect on TASK-2 currents” value ([2]; 1 mM) is reported as “inactive”.
`CCCCc1oc2ccccc2c1C(=O)c1cc(I)c(OCCN(CC)CC)c(I)c1` [amiodarone] gave an inhibition at 100 µM [1, 6] of less than 10%.
In the case of `CCCCC/C=C\C/C=C\C/C=C\C/C=C\CCCC(=O)O` [arachidonic acid], the “sensitivity of TASK-2” value ([2]; 10 µM) is reported as “not sensitive”.
In the case of `CCCCN1CCCCC1C(=O)Nc1c(C)cccc1C` (stereo not shown) [bupivacaïne], the inhibition at 1000 µM ([2]; COS, 1 mM, n = 4, read-out: inhibition of the TASK-2 current) is reported as 80.9%.
`CCCCCCC[N+](CC)(CC)CCCCc1ccc(Cl)cc1` [clofilium] was tested, and the inhibition at 30 µM [1] was less than 10%.
In the case of `CC1(C)Oc2ccc(C#N)cc2C(N2CCCC2=O)C1O` (stereo not shown) [cromakaline], the “sensitivity of the TWIK-1 channel to K+ channel opener” value ([1]; 140 µM) is reported as “not sensitive”.
For `COc1ccc(Cl)cc1C(=O)NCCc1ccc(S(=O)(=O)NC(=O)NC2CCCCC2)cc1` [glibenclamide], the inhibition at 30 µM [1] was less than 10%.
In the case of `O=P(O)(O)O[C@@H]1[C@H](O)[C@H](O)[C@@H](OP(=O)(O)O)[C@H](OP(=O)(O)O)[C@H]1O` [inositol triphosphate], the “sensitivity of TASK1 currents” value ([4]; injection of 1 mM, internal Ca2+ change) is reported as “insensitive”.
In the case of `CCN(CC)CC(=O)Nc1c(C)cccc1C` [lidocaine], the inhibition at 1000 µM [2, 7] is reported as 60.4 ± 1.5%.
`CC(N/C(=N\C#N)Nc1ccncc1)C(C)(C)C` (stereo not shown) [pinacidil] was tested, and the “sensitivity of the TWIK-1 channel to K+ channel opener” value ([1]; 100 µM) was “not sensitive”.
Work on `CCN(CC)CCCC(C)Nc1c2ccc(Cl)cc2nc2ccc(OC)cc12` (stereo not shown) [quinacrine] yielded an inhibition at 100 µM [4] of less than 20%.
In the case of `C=C[C@H]1C[N@@]2CC[C@H]1C[C@@H]2[C@@H](O)c1ccnc2ccc(OC)cc12` [quinidine], the inhibition at 100 µM [4] is reported as less than 20%.
`C=C[C@H]1C[N@@]2CC[C@H]1C[C@H]2[C@H](O)c1ccnc2ccc(OC)cc12` [quinine] was tested, and the inhibition at 100 µM [4] was less than 20%, the IC50 [2] was 22.4 ± 1.8 µM and the inhibition at 100 µM [2, 7] was 65 ± 3.8%.
`C1CCC2(C1)C1CN(CC3CC3)CC2CN(CC2CC2)C1` [tedisamil] showed an inhibition at 100 µM ([1]; at 100 µM, read-out: inhibition of TWIK-1 currents) of 30%.
Compound “apamin (from UniProt P01500 28-45) (peptide)” has an inhibition of TWIK-1 K+ currents (two-electrode voltage clamp, Xenopus oocytes) [5] of less than 10%.
In the case of “charybdotoxine (from UniProt P13487 23-59) (peptide)”, the inhibition of TWIK-1 K+ currents (two-electrode voltage clamp, Xenopus oocytes) [5] is reported as less than 10%.
dedrotoxine (peptide) showed an inhibition of TWIK-1 K+ currents (two-electrode voltage clamp, Xenopus oocytes) [5] of less than 10%.
